“And” between values parts separate entries of the source, which are not always exact repeats. Equal entries are not always repeated. The source made the active and inactive calls. The rule behind the calls is not given here.

Sequence of Phospholipase D2 (Homo sapiens) (O14939 whole entry, looked up): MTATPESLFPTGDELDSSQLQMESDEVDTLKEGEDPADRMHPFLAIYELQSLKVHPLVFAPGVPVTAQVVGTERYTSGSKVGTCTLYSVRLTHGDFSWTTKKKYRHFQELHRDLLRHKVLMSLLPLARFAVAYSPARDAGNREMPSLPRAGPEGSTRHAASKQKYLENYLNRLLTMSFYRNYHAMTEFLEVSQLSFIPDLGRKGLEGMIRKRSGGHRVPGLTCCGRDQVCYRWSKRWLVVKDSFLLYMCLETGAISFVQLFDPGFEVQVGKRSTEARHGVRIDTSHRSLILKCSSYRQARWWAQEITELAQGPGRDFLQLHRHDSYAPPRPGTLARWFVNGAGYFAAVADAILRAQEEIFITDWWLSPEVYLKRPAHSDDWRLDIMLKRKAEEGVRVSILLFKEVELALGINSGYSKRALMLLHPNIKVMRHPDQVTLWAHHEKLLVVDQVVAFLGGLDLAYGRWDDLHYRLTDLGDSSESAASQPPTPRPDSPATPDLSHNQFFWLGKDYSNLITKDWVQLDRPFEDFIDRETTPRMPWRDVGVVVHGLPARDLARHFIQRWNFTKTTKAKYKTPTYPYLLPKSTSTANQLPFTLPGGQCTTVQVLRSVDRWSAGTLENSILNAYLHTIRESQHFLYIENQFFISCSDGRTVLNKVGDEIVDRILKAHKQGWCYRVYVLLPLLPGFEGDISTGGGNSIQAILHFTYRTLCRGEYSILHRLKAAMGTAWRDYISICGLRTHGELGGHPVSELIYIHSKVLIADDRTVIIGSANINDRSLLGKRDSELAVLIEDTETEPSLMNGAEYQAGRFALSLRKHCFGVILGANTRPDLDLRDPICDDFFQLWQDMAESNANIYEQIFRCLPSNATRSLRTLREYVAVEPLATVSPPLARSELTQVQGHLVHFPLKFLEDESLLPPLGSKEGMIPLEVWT

One assay concerns the target Phospholipase D2 (Homo sapiens) (UniProt O14939). Description: inhibitors of cellular PLD2 activity, cell-based (AID 743409). The note with it: cellular PLD2 isoenzyme activity, at 2 µM, stronger effect = higher value.
`O=C(NCCN1CCC2(CC1)C(=O)NCN2Cc1cccnc1)c1ccc(SC(F)(F)F)cc1`: the inhibition (in general, the share of the control response that was lost under treatment) was 8% (inactive).
Regarding `O=C(NCCN1CCC2(CC1)C(=O)NCN2c1cncc(Br)c1)c1ccc2ccccc2c1`, the inhibition was 26% (inactive).
In the case of `Cc1cc(C)c2cc(C(=O)NCCN3CCC4(CC3)C(=O)NCN4Cc3cccnc3)[nH]c2c1`, the inhibition was 35% (inactive).
With `Cc1cc(N2CNC(=O)C23CCN(CCNC(=O)c2ccc4ccccc4c2)CC3)ccn1`, the inhibition is 0% (inactive).
Same read-out and setting: to `O=C(NCCN1CCC2(CC1)C(=O)NCN2Cc1cccnc1)c1cc(F)cc(F)c1` belongs 4% (inactive).
Still for that read-out and setting: then `O=C(NCCN1CCC2(CC1)C(=O)NCN2Cc1cccnc1)c1ccc(F)cc1`, with 11% (inactive).
For the compound `Cc1cc(Br)cnc1C(=O)NCCN1CCC2(CC1)C(=O)NCN2Cc1cccnc1`, the inhibition is 1% (inactive).
Take `O=C(NCCN1CCC2(CC1)C(=O)NCN2Cc1cccnc1)c1ccc2cc(F)ccc2c1`: the inhibition is 36% (inactive).
The same measure, in the same setting: to `O=C(NCCN1CCC2(CC1)C(=O)NCN2Cc1cccnc1)c1ccc2ccccc2c1` belongs 80%.
On to `O=C(NCCN1CCC2(CC1)C(=O)NCN2c1cccnc1)c1ccc(F)c(F)c1`, for which the inhibition was 7% (inactive).
`O=C(NCCN1CCC2(CC1)C(=O)NCN2Cc1cccnc1)c1cc2ccccc2[nH]1`: the inhibition is 100%.
As to `O=C(NCCN1CCC2(CC1)C(=O)NCN2c1cccnc1)c1cc(F)c(F)c(F)c1`, the inhibition was 0% (inactive).
Still for that read-out and setting: then `O=C(NCCN1CCC2(CC1)C(=O)NCN2Cc1cccnc1)c1ccccc1F`, with 0% (inactive); and `O=C(NCCN1CCC2(CC1)C(=O)NCN2Cc1cccnc1)c1c[nH]c2ccccc12`, with 23% (inactive); and `O=C(NCCN1CCC2(CC1)C(=O)NCN2Cc1cccnc1)c1c(F)ccc(Cl)c1F`, with 18% (inactive).
Regarding `O=C(NCCN1CCC2(CC1)C(=O)NCN2Cc1cccnc1)c1ccc(Cl)cc1F`, the inhibition was 18% (inactive).
For the compound `O=C(NCCN1CCC2(CC1)C(=O)NCN2Cc1cccnc1)c1ccc(Cl)c(Cl)c1`, the inhibition was 63% (inactive).
On the same count and under the same terms, then `O=C(NCCN1CCC2(CC1)C(=O)NCN2Cc1cccnc1)c1cccc(C(F)(F)F)c1`, with 0% (inactive); and `O=C(NCCN1CCC2(CC1)C(=O)NCN2Cc1cccnc1)c1cccc2cccnc12`, with 42% (inactive); and `O=C(NCCN1CCC2(CC1)C(=O)NCN2c1cccnc1)c1ccc2ccccc2c1`, with 0% (inactive).
Take `COc1cc(C(=O)NCCN2CCC3(CC2)C(=O)NCN3Cc2cccnc2)cc(OC)c1OC`: the inhibition was 15% (inactive).
Same read-out and setting: then `O=C(NCCN1CCC2(CC1)C(=O)NCN2c1ccnc(Cl)c1)c1ccc2ccccc2c1`, with 11% (inactive).
The same measure, in the same setting: to `O=C(NCCN1CCC2(CC1)C(=O)NCN2c1cncc(F)c1)c1cc(F)c(F)c(F)c1` belongs 2% (inactive); to `Cn1c(C(=O)NCCN2CCC3(CC2)C(=O)NCN3Cc2cccnc2)cc2ccccc21`, 14% (inactive).
As to `O=C(NCCN1CCC2(CC1)C(=O)NCN2Cc1cccnc1)c1nc(-c2ccc(F)cc2)no1`, the inhibition was 17% (inactive).
On the same count and under the same terms, to `O=C(NCCN1CCC2(CC1)C(=O)NCN2c1cncc(F)c1)c1ccc(F)cc1` belongs 3% (inactive).
Still for that read-out and setting: to `O=C(NCCN1CCC2(CC1)C(=O)NCN2c1ccc(C(F)(F)F)nc1)c1ccc2ccccc2c1` belongs 4% (inactive); to `O=C(NCCN1CCC2(CC1)C(=O)NCN2Cc1cccnc1)c1cc2cc(F)ccc2[nH]1`, 100%; to `O=C(NCCN1CCC2(CC1)C(=O)NCN2Cc1cccnc1)c1ccc(F)cc1C(F)(F)F`, 0% (inactive).
For `Cn1cc(C(=O)NCCN2CCC3(CC2)C(=O)NCN3Cc2cccnc2)c2ccccc21`, the inhibition is 31% (inactive).
On the same count and under the same terms, to `Cc1ccc(S(=O)(=O)NCCN2CCC3(CC2)C(=O)NCN3Cc2cccnc2)cc1` belongs 10% (inactive); to `O=C(NCCN1CCC2(CC1)C(=O)NCN2c1cccnc1)c1ccc(Br)cc1`, 0% (inactive).
Same read-out and setting: to `O=C(NCCN1CCC2(CC1)C(=O)NCN2c1cncc(F)c1)c1ccc(Br)cc1` belongs 15% (inactive); to `O=C(NCCN1CCC2(CC1)C(=O)NCN2Cc1cccnc1)c1ccc(Br)cc1`, 48% (inactive); to `O=C(NCCN1CCC2(CC1)C(=O)NCN2c1cncc(F)c1)c1ccc2ccccc2c1`, 18% (inactive).
Same read-out and setting: to `O=C(NCCN1CCC2(CC1)C(=O)NCN2Cc1cccnc1)c1cccc(F)c1` belongs 14% (inactive); to `O=C(NCCN1CCC2(CC1)C(=O)NCN2Cc1cccnc1)c1c(Cl)cncc1Cl`, 3% (inactive); to `O=C(NCCN1CCC2(CC1)C(=O)NCN2Cc1cccnc1)c1cccs1`, 0%.
For `O=C(NCCN1CCC2(CC1)C(=O)NCN2c1cncc(F)c1)c1ccc(F)c(F)c1`, the inhibition was 0% (inactive).
On to `O=C(NCCN1CCC2(CC1)C(=O)NCN2Cc1cccnc1)c1ccc(Cl)cc1Cl`, for which the inhibition is 0% (inactive).
The same measure, in the same setting: then `O=C(NCCN1CCC2(CC1)C(=O)NCN2Cc1cccnc1)c1ccnc2ccccc12`, with 0% (inactive).
Still for that read-out and setting: to `O=C(NCCN1CCC2(CC1)C(=O)NCN2Cc1cccnc1)c1sc2ncccc2c1-n1cccc1` belongs 5% (inactive).
On the same count and under the same terms, then `O=C(NCCN1CCC2(CC1)C(=O)NCN2c1cccnc1)c1ccc(F)cc1`, with 2% (inactive).
For `O=C(NCCN1CCC2(CC1)C(=O)NCN2Cc1cccnc1)c1cc2ccccc2o1`, the inhibition is 73%.
Take `O=C(NCCN1CCC2(CC1)C(=O)NCN2c1ccnc(F)c1)c1ccc2ccccc2c1`: the inhibition was 15% (inactive).
Same read-out and setting: to `O=C(NCCN1CCC2(CC1)C(=O)NCN2Cc1cccnc1)c1cccc(Cl)c1` belongs 21% (inactive); to `O=C(NCCN1CCC2(CC1)C(=O)NCN2Cc1cccnc1)c1ccc(F)cc1Cl`, 0% (inactive).
On the same count and under the same terms, then `O=C(NCCN1CCC2(CC1)C(=O)NCN2Cc1cccnc1)c1ccc2c(c1)C(=O)NC2=O`, with 0% (inactive).
The same measure, in the same setting: then `O=C(NCCN1CCC2(CC1)C(=O)NCN2Cc1cccnc1)c1ccc(F)cc1F`, with 0% (inactive); and `O=C(NCCN1CCC2(CC1)C(=O)NCN2Cc1cccnc1)c1ccc2ccccc2n1`, with 31% (inactive); and `O=C(NCCN1CCC2(CC1)C(=O)NCN2Cc1cccnc1)[C@@H]1C[C@H]1c1ccccc1`, with 20% (inactive).
For the compound `O=C(NCCN1CCC2(CC1)C(=O)NCN2Cc1cccnc1)c1nccc2ccccc12`, the inhibition is 32% (inactive).
Turning to `Cc1nc2sc(C(=O)NCCN3CCC4(CC3)C(=O)NCN4Cc3cccnc3)c(N)c2c(C)c1C`, the inhibition was 8% (inactive).
Same read-out and setting: then `O=C(NCCN1C=CC2(CC1)C(=O)NCN2Cc1cccnc1)c1cccc2nsnc12` (centres undefined), with 4% (inactive); and `O=C(NCCN1CCC2(CC1)C(=O)NCN2c1cccnc1)c1cc2cc(F)ccc2[nH]1`, with 12% (inactive).
Still for that read-out and setting: to `O=C(NCCN1CCC2(CC1)C(=O)NCN2Cc1cccnc1)c1ccc(C(F)(F)F)cc1` belongs 5% (inactive); to `O=C(NCCN1CCC2(CC1)C(=O)NCN2Cc1cccnc1)c1ccc2ccccc2c1Br`, 61%.
Regarding `O=C(NCCN1CCC2(CC1)C(=O)NCN2Cc1cccnc1)c1cc(F)c(F)c(F)c1`, the inhibition is 10% (inactive).
Still for that read-out and setting: to `O=C(NCCN1CCC2(CC1)C(=O)NCN2Cc1cccnc1)c1ccc(F)c(F)c1` belongs 22% (inactive); to `O=C(NCCN1CCC2(CC1)C(=O)NCN2Cc1cccnc1)c1cc2cccnc2[nH]1`, 19% (inactive).
Regarding `O=C(NCCN1CCC2(CC1)C(=O)NCN2c1cncc(F)c1)c1cc2cc(F)ccc2[nH]1`, the inhibition was 15% (inactive).

The same assay, now with this note: cellular PLD2 isoenzyme activity, at 20 µM, stronger effect = higher value.
As to `COc1cccc(C(=O)N2CNC(=O)C23CCN(CCNC(=O)c2ccc4ccccc4c2)CC3)c1`, the inhibition is 85%.
Take `O=C(NCCN1CCC2(CC1)C(=O)NCN2Cc1cccnc1)c1ccc2ccccc2c1`: the inhibition is 100%.
For the compound `O=C(NCCN1CCC2(CC1)C(=O)NCN2Cc1ccccc1)c1ccc2ccccc2c1`, the inhibition is 99%.
Same read-out and setting: to `O=C(NCCN1CCC2(CC1)C(=O)NCN2CC1CC1)c1ccc2ccccc2c1` belongs 100%; to `O=C(NCCN1CCC2(CC1)C(=O)NCN2Cc1ccccn1)c1ccc2ccccc2c1`, 100%.
On the same count and under the same terms, to `O=C(NCCN1CCC2(CC1)C(=O)NCN2Cc1ccccc1Cl)c1ccc2ccccc2c1` belongs 100%; to `O=C(NCCN1CCC2(CC1)C(=O)NCN2C(=O)c1cccc(F)c1)c1ccc2ccccc2c1`, 84%.
In the case of `O=C(NCCN1CCC2(CC1)NCNC2=O)c1ccc2ccccc2c1`, the inhibition was 22% (inactive).
Still for that read-out and setting: then `O=C(NCCN1CCC2(CC1)C(=O)NCN2C(=O)C1CCC1)c1ccc2ccccc2c1`, with 100%.
Turning to `O=C(NCCN1CCC2(CC1)C(=O)NCN2Cc1ccc(Cl)cc1)c1ccc2ccccc2c1`, the inhibition is 96%.
The same measure, in the same setting: then `O=C(NCCN1CCC2(CC1)C(=O)NCN2Cc1cccc(OC(F)(F)F)c1)c1ccc2ccccc2c1`, with 46% (inactive); and `O=C(NCCN1CCC2(CC1)C(=O)NCN2Cc1cccc(Cl)c1)c1ccc2ccccc2c1`, with 100%; and `O=C(NCCN1CCC2(CC1)C(=O)NCN2Cc1ccccc1F)c1ccc2ccccc2c1`, with 65% and 100%.
Still for that read-out and setting: then `O=C(NCCN1CCC2(CC1)C(=O)NCN2Cc1ccncc1)c1ccc2ccccc2c1`, with 100%; and `O=C(NCCN1CCC2(CC1)C(=O)NCN2Cc1ccccc1Br)c1ccc2ccccc2c1`, with 100%.
Same read-out and setting: to `O=C(NCCN1CCC2(CC1)C(=O)NCN2C(=O)c1ccccc1)c1ccc2ccccc2c1` belongs 82%.
As for `O=C(NCCN1CCC2(CC1)C(=O)NCN2C(=O)C1CC1)c1ccc2ccccc2c1`, the inhibition is 100%.
On the same count and under the same terms, then `O=C(NCCN1CCC2(CC1)C(=O)NCN2Cc1cccc2ccccc12)c1ccc2ccccc2c1`, with 100%.

The record behind these values is PubChem BioAssay AID743409 (Vanderbilt Specialized Chemistry Center, 2014).
